Laboratory results as given in ChEMBL document CHEMBL3045237, “Synthesis, DNA binding, hemolytic, and anti-cancer assays of curcumin I-based ligands and their ruthenium(III) complexes” (Med Chem Res, 2013).

Tests used:
HepG2 [1] = test: Growth inhibition of Homo sapiens (human) HepG2 cells at 0.5 mg/ml after 24 hr by MTS assay; assay type: functional; conditions: HepG2, 24 h, read-out: GI
HT-29 = test: Growth inhibition of Homo sapiens (human) HT-29 cells at 0.5 mg/ml after 24 hr by MTS assay; assay type: functional; conditions: HT-29, 24 h, read-out: GI
MDA-MB-231 [2] = test: Growth inhibition of Homo sapiens (human) MDA-MB-231 cells at 0.0005 mg/ml after 24 hr by MTS assay; assay type: functional; conditions: MDA-MB-231, 24 h, read-out: GI
MDA-MB-231 [3] = test: Growth inhibition of Homo sapiens (human) MDA-MB-231 cells at 0.5 mg/ml after 24 hr by MTS assay; assay type: functional; conditions: MDA-MB-231, 24 h, read-out: GI
HeLa [4] = test: Growth inhibition of Homo sapiens (human) HeLa cells at 0.005 mg/ml after 24 hr by MTS assay; assay type: functional; conditions: read-out: GI
HeLa [5] = test: Growth inhibition of Homo sapiens (human) HeLa cells at 0.0005 mg/ml after 24 hr by MTS assay; assay type: functional; conditions: read-out: GI
HeLa [6] = test: Growth inhibition of Homo sapiens (human) HeLa cells at 0.05 mg/ml after 24 hr by MTS assay; assay type: functional; conditions: read-out: GI
HeLa [7] = test: Growth inhibition of Homo sapiens (human) HeLa cells at 0.5 mg/ml after 24 hr by MTS assay; assay type: functional; conditions: read-out: GI
[8] = Hemolytic activity against Homo sapiens (human) RBC at 100 ug/ml after 1 hr by spectrophotometric analysis relative to control; assay type: ADME, cell-based, Erythrocyte; conditions: red blood cells (RBC), read-out: Activity
[9] = Hemolytic activity against Homo sapiens (human) RBC at 50 ug/ml after 1 hr by spectrophotometric analysis relative to control; assay type: cell-based, Erythrocyte; conditions: red blood cells (RBC), read-out: Activity
[10] = Hemolytic activity against Homo sapiens (human) RBC at 5 ug/ml after 1 hr by spectrophotometric analysis relative to control; assay type: ADME, cell-based, Erythrocyte; conditions: red blood cells (RBC), read-out: Activity
[11] = Hemolytic activity against Homo sapiens (human) RBC at 10 ug/ml after 1 hr by spectrophotometric analysis relative to control; assay type: ADME, cell-based, Erythrocyte; conditions: red blood cells (RBC), read-out: Activity
[12] = Hemolytic activity against Homo sapiens (human) RBC at 20 ug/ml after 1 hr by spectrophotometric analysis relative to control; assay type: ADME, cell-based, Erythrocyte; conditions: red blood cells (RBC), read-out: Activity
HepG2 [13] = test: Growth inhibition of Homo sapiens (human) HepG2 cells at 0.005 mg/ml after 24 hr by MTS assay; assay type: functional; conditions: HepG2, 24 h, read-out: GI
MDA-MB-231 [14] = test: Growth inhibition of Homo sapiens (human) MDA-MB-231 cells at 0.005 mg/ml after 24 hr by MTS assay; assay type: functional; conditions: MDA-MB-231, 24 h, read-out: GI
MDA-MB-231 [15] = test: Growth inhibition of Homo sapiens (human) MDA-MB-231 cells at 0.05 mg/ml after 24 hr by MTS assay; assay type: functional; conditions: MDA-MB-231, 24 h, read-out: GI
HeLa [16] = test: Cytotoxicity against Homo sapiens (human) HeLa cells after 24 hr by MTS assay; assay type: functional, cell-based

## COc1cc(/C=C/C(=N\NC(N)=O)C(=Cc2cc(OC)c(O)c(OC)c2)C(/C=C/c2ccc(O)c(OC)c2)=N/NC(N)=O)ccc1O
HepG2 [1]
  inhibition of growth at 500 µg/mL: 48.1%
HT-29
  inhibition of growth at 500 µg/mL: 46.5%
MDA-MB-231 [2]
  inhibition of growth at 0.5 µg/mL: 8.79%
MDA-MB-231 [3]
  inhibition of growth at 500 µg/mL: 33.6%
HeLa [4]
  inhibition of growth at 5 µg/mL: 15.8%
HeLa [5]
  inhibition of growth at 0.5 µg/mL: 40.1%
HeLa [6]
  inhibition of growth at 50 µg/mL: 28.1%
HeLa [7]
  inhibition of growth at 500 µg/mL: 53.1%
[8]
  hemolysis at 1 h, 100 ug/ml: 15%
[9]
  hemolysis at 1 h, 50 ug/ml: 9%
[10]
  hemolysis at 1 h, 5 ug/ml: 2%
[11]
  hemolysis at 1 h, 10 ug/ml: 4%
[12]
  hemolysis at 1 h, 20 ug/ml: 3.9%

## N#Cc1ccc(C(c2ccc(C#N)cc2)n2cncn2)cc1 [LETROZOLE]
[8]
  hemolysis at 1 h, 100 ug/ml: 98%
[9]
  hemolysis at 1 h, 50 ug/ml: 80%
[10]
  hemolysis at 1 h, 5 ug/ml: 22%
[11]
  hemolysis at 1 h, 10 ug/ml: 32%
[12]
  hemolysis at 1 h, 20 ug/ml: 60%

## COc1cc(/C=C/C(=N\NC(N)=O)C(=Cc2ccc(O)cc2)C(/C=C/c2ccc(O)c(OC)c2)=N/NC(N)=O)ccc1O
HepG2 [13]
  inhibition of growth at 5 µg/mL: 0.51%
HepG2 [1]
  inhibition of growth at 500 µg/mL: 0.74%
MDA-MB-231 [2]
  inhibition of growth at 0.5 µg/mL: 21.7%
MDA-MB-231 [14]
  inhibition of growth at 5 µg/mL: 12.9%
MDA-MB-231 [15]
  inhibition of growth at 50 µg/mL: 7.64%
HeLa [16]
  IC50: 20.4 nM
HeLa [4]
  inhibition of growth at 5 µg/mL: 33.5%
HeLa [5]
  inhibition of growth at 0.5 µg/mL: 30.8%
HeLa [6]
  inhibition of growth at 50 µg/mL: 35%
HeLa [7]
  inhibition of growth at 500 µg/mL: 13.8%
[8]
  hemolysis at 1 h, 100 ug/ml: 21%
[9]
  hemolysis at 1 h, 50 ug/ml: 18%
[10]
  hemolysis at 1 h, 5 ug/ml: 8%
[11]
  hemolysis at 1 h, 10 ug/ml: 10%
[12]
  hemolysis at 1 h, 20 ug/ml: 12%
